Assays:
Test in all cases: KinomeScan profiling
Type in all cases: binding
MRCKA = MRCKA (Homo sapiens, UniProt Q5VT25); settings: read-out: % control
Procedure, shortened: (§1)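 Test agents were profiled at a single concentration of 1 μM (DMSO vehicle) on a near-complete set of 468 kinases. Signal is reported relative to vehicle (100%) and a fully displacing control (0%).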

PIKFYVE = molecular target: T1, PIKFYVE (Homo sapiens, UniProt Q9Y2I7); settings: read-out: % control
T1 construct: purchased KinomeScan® (panel service)
T1 sequence (Q9Y2I7 whole entry): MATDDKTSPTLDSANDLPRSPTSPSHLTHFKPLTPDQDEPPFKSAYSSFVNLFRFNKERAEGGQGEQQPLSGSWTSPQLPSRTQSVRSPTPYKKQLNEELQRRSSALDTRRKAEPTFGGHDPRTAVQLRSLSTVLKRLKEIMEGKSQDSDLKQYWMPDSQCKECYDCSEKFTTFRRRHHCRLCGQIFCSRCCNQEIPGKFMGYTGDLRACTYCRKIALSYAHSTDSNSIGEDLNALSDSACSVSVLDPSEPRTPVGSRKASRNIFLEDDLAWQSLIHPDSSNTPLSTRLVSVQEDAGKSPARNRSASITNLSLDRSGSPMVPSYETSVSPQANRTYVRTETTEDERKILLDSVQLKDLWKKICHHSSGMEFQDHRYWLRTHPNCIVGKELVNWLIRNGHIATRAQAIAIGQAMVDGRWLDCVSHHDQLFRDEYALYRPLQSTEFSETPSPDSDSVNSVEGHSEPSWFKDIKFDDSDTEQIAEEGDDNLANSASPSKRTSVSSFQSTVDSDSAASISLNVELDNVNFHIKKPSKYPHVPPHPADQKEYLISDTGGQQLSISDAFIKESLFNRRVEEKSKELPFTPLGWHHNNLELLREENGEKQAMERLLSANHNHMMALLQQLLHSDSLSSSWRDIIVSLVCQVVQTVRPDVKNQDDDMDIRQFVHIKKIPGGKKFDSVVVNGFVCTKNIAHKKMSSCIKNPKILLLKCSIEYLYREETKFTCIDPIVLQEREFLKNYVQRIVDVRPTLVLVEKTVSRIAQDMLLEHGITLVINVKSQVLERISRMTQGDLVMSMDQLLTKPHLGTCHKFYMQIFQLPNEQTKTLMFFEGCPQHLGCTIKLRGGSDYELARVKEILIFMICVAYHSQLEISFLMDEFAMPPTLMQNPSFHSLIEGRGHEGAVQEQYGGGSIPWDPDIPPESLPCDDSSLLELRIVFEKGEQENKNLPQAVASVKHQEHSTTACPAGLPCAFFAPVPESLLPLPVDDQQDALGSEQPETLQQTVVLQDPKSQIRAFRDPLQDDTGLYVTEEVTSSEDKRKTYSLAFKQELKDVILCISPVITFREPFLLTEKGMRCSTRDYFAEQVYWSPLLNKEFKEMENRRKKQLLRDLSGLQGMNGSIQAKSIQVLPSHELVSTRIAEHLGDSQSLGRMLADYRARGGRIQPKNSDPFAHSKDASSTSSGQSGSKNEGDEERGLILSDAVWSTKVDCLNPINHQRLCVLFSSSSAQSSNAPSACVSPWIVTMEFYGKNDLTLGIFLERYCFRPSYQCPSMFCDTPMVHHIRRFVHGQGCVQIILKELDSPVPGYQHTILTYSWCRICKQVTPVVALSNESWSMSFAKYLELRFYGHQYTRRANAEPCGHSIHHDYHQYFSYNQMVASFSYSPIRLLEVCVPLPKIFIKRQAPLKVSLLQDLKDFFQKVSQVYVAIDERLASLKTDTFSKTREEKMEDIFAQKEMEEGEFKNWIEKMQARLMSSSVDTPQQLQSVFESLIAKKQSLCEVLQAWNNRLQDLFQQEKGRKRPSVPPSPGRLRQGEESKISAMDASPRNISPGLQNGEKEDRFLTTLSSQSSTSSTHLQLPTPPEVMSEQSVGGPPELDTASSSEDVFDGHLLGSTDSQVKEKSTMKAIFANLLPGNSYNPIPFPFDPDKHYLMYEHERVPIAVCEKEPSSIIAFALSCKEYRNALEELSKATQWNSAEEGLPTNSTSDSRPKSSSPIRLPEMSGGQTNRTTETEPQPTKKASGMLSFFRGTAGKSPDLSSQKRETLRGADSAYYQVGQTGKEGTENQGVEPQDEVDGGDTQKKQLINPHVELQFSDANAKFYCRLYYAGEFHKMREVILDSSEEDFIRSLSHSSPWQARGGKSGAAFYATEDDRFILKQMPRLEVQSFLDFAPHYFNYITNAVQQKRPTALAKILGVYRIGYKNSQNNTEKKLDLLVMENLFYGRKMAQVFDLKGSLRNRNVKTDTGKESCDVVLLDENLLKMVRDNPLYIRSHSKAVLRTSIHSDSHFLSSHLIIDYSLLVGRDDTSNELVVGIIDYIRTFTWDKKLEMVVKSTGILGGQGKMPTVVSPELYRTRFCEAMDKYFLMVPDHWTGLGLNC
Procedure, shortened: as §1

PRKG2 = molecular target: T2, PRKG2 (Homo sapiens, UniProt Q13237); settings: PRKG2, 1 μM; read-out: % control
T2 sequence (Q13237 1-762): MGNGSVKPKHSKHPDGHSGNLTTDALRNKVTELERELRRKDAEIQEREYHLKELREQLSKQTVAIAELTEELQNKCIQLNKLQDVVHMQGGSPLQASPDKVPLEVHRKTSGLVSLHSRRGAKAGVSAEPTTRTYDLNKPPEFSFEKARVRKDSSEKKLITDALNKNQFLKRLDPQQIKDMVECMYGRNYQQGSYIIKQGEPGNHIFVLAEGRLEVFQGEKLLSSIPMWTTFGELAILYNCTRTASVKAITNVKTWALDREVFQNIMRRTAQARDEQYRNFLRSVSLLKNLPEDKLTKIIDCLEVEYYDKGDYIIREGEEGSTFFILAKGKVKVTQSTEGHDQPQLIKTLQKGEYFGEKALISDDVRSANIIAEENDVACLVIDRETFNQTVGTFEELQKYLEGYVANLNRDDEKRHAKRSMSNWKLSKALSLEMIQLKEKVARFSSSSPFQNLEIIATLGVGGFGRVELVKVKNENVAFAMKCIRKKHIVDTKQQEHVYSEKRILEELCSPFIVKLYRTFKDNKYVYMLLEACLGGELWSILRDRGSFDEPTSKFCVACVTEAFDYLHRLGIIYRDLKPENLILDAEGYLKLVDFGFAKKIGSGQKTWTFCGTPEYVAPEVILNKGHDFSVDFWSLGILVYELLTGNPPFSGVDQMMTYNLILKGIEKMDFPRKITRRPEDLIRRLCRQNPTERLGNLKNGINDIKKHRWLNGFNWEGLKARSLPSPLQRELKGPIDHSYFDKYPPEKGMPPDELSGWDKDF
Procedure, shortened: as §1

EGFR(L858R, T790M) = EGFR(L858R, T790M) (Homo sapiens, UniProt P00533, L858R/T790M); settings: read-out: % control
Procedure, shortened: as §1

PAK2 = PAK2 (Homo sapiens, UniProt Q13177); settings: PAK2, 1 μM; read-out: % control
Chain of PAK2 (Q13177 whole entry): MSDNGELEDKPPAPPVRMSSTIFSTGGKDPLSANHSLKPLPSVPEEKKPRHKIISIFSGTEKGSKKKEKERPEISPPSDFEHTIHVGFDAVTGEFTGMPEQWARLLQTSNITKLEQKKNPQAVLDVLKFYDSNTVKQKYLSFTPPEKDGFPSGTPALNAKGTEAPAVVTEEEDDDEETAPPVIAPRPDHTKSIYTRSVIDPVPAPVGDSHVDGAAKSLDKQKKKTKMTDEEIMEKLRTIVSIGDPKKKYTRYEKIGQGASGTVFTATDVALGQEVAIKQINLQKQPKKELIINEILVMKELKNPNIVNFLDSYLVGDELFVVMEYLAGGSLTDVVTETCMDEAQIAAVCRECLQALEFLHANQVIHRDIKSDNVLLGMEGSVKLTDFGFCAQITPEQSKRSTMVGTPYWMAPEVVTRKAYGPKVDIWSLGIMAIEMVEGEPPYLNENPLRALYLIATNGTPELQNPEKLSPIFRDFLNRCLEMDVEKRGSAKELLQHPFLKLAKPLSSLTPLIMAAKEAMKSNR
Procedure, shortened: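 Luminescence (RLU) was converted to percent of control, with DMSO set as 100% and a reference compound as 0%. Test compounds were run at 1 μM against 468 kinases. Kinases showing below 35% of control were scored as bound.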

MLK3 = MLK3 (Homo sapiens, UniProt Q16584); settings: MLK3, 1 μM; read-out: % control
Procedure, shortened: as §1

SNARK = molecular target: T3, SNARK (Homo sapiens, UniProt Q9H093); settings: read-out: % control
T3 construct: purchased KinomeScan® (panel service)
T3 sequence (Q9H093 1-628): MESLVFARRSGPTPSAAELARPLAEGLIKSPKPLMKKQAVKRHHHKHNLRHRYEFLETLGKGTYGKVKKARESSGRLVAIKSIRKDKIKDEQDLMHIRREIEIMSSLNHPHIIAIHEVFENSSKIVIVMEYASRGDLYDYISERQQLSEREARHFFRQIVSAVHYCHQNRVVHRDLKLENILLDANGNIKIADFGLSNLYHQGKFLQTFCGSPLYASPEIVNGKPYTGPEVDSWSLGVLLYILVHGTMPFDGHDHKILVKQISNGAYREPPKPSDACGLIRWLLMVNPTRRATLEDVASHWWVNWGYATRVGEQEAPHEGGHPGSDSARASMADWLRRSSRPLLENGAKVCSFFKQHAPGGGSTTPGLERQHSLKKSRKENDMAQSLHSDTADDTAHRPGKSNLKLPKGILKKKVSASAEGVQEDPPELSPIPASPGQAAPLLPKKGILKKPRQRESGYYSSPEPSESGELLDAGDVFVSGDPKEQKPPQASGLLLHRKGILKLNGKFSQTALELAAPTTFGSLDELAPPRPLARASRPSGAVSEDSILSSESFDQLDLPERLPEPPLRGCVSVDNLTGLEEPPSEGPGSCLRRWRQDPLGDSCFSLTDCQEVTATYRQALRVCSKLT
Procedure, shortened: as §1

PIK3C2B = PIK3C2B (Homo sapiens, UniProt O00750); settings: read-out: % control
Procedure, shortened: as §1

EGFR(S752-I759del) = EGFR(S752-I759del) (Homo sapiens, UniProt P00533, DEL752-759); settings: read-out: % control
Chain of EGFR(S752-I759del) (P00533 with tags, fused parts or gaps DEL752-759): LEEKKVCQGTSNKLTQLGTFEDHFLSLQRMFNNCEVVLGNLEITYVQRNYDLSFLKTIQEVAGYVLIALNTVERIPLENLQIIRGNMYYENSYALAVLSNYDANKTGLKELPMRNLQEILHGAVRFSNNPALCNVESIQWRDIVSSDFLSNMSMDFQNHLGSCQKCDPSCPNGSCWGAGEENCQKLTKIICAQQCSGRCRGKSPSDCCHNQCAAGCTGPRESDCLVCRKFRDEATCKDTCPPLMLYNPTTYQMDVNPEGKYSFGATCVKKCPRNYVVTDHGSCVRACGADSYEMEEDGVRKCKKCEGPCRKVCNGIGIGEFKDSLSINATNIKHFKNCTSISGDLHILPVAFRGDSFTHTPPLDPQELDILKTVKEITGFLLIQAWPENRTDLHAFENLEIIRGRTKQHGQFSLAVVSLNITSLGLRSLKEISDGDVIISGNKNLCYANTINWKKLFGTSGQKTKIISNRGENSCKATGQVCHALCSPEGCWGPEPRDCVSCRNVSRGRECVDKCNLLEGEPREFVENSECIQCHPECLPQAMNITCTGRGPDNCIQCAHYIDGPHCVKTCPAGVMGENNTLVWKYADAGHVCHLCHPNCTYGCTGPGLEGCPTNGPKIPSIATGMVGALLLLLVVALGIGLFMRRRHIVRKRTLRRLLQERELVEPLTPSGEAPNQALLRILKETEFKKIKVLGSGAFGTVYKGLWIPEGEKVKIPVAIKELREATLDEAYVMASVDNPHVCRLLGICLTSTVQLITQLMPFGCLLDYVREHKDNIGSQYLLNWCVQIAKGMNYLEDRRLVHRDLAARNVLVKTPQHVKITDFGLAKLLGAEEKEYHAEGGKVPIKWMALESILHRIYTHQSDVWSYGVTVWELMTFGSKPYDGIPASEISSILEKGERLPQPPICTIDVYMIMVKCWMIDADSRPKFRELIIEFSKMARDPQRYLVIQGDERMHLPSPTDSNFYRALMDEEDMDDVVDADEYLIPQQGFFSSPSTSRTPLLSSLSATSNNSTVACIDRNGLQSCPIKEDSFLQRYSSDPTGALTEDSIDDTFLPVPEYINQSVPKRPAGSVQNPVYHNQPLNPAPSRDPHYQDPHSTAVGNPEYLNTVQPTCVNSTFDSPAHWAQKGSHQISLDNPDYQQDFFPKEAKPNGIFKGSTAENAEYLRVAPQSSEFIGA
Procedure, shortened: as §1

MAPKAPK2 = MAPKAPK2 (Homo sapiens, UniProt P49137); settings: MAPKAPK2, 1 μM; read-out: % control
Procedure, shortened: as §1

PIM2 = molecular target: T4, PIM2 (Homo sapiens, UniProt Q9P1W9); settings: PIM2, 1 μM; read-out: % control
T4 construct: purchased KinomeScan® (panel service)
T4 sequence (Q9P1W9 whole entry): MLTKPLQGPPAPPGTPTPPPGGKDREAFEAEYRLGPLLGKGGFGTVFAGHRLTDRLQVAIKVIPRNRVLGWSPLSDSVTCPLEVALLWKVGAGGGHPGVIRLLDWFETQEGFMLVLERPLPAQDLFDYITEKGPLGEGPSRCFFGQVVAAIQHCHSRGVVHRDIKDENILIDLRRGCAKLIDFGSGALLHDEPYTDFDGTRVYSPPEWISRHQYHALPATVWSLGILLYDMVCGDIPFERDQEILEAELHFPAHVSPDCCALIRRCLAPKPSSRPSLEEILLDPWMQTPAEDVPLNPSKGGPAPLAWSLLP
Procedure, shortened: as §1

PHKG1 = PHKG1 (Homo sapiens, UniProt Q16816); settings: PHKG1, 1 μM; read-out: % control
Chain of PHKG1 (Q16816 whole entry): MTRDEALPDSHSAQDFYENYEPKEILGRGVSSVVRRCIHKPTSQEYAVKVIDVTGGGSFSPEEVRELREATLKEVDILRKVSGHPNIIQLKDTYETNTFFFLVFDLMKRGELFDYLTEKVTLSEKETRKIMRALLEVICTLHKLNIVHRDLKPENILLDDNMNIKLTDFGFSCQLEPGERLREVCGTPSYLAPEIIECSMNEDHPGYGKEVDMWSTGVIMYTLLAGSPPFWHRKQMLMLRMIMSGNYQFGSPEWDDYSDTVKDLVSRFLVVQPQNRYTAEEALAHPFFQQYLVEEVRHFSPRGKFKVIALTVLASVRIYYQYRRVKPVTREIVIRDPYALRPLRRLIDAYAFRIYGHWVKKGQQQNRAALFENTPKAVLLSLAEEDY
Procedure, shortened: as §1

PIK3CA(E545K) = molecular target: T5, PIK3CA(E545K) (Homo sapiens, UniProt P42336, E545K); settings: read-out: % control
T5 construct: purchased KinomeScan® (panel service)
Procedure, shortened: as §1

[1] = molecular target: T6, JAK1(JH2domain-pseudokinase) (Homo sapiens, UniProt P23458); settings: read-out: % control
T6 construct: JAK1(JH2domain-pseudokinase); purchased KinomeScan®
T6 sequence (P23458 583-855 limits assumed): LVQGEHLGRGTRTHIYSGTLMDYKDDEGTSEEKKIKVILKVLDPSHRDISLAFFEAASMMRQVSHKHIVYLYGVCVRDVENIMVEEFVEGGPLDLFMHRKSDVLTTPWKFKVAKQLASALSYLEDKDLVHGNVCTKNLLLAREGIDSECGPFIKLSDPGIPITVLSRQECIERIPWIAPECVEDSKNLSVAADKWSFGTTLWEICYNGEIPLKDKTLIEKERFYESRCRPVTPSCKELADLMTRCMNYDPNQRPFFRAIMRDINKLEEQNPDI
Procedure, shortened: as §1

Row | Compound | remaining binding at 1 µM (MRCKA) [%] | remaining binding at 1 µM (PIKFYVE) [%] | remaining binding at 1 µM (PRKG2) [%] | remaining binding at 1 µM (EGFR(L858R, T790M)) [%] | remaining binding at 1 µM (PAK2) [%] | remaining binding at 1 µM (MLK3) [%] | remaining binding at 1 µM (SNARK) [%] | remaining binding at 1 µM (PIK3C2B) [%] | remaining binding at 1 µM (EGFR(S752-I759del)) [%] | remaining binding at 1 µM (MAPKAPK2) [%] | remaining binding at 1 µM (PIM2) [%] | remaining binding at 1 µM (PHKG1) [%] | remaining binding at 1 µM (PIK3CA(E545K)) [%] | remaining binding at 1 µM [1] [%]
1 | CNc1c(-c2cnn([C@H]3CCN(C(C)=O)C[C@@H]3F)c2)cnc2[nH]cc(Cl)c12 [Compound 77, 1-((3S,4S)-4-(4-(3-chloro-4-(methylamino)-1H-pyrrolo[2,3-b]pyridin-5-yl)-1H-pyrazol-1-yl)-3-fluoropiperidin-1-yl)ethan-1-one] | 100 | 53 | 100 | 99 | 100 | 93 | 96 | 100 | 100 | 100 | 100 | 100 | 18 | 57
2 | CNc1c(-c2ccc(C(=O)N3CCC(N4CCOCC4)CC3)cc2)cnc2[nH]cc(Cl)c12 [Compound 96, (4-(3-chloro-4-(methylamino)-1H-pyrrolo[2,3-b]pyridin-5-yl)phenyl)(4-morpholinopiperidin-1-yl)methanone] | 100 | 66 | 100 | 98 | 96 | 99 | 64 | 96 | 98 | 100 | 100 | 86 | 31 | 94
3 | O=C(c1ccc(-c2cnc3[nH]cc(Cl)c3c2NC2CCCC2)cc1)N1CCC(N2CCOCC2)CC1 [Compound 101, (4-(3-chloro-4-(cyclopentylamino)-1H-pyrrolo[2,3-b]pyridin-5-yl)phenyl)(4-morpholinopiperidin-1-yl)methanone] | 100 | 98 | 100 | 100 | 80 | 100 | 33 | 96 | 100 | 51 | 94 | 87 | 79 | 47

Source: patent US12275731B2, “Azaindole inhibitors of wild-type and mutant forms of LRRK2” (DANA-FARBER CANCER INSTITUTE, INC., priority 2018, dated 2025)
